In US20190192521A1, “Methods of Treating Arid1A-Mutated Cancers With HDAC6 Inhibitors and EZH2 Inhibitors” (The Wistar Institute of Anatomy and Biology, priority 2016, published 2019):
Where no end group is shown, it is not given here.

How the values were obtained:
[1] = tested on: ovarian clear cell carcinoma cell lines with known ARID1A mutational status; assay: colony formation assay, panel of ovarian clear cell carcinoma cell lines with or without ARID1A mutation; assay type: cell-based, human; conditions: 12 days
Procedure: After 12 days culture, integrated density of colony formed by the indicated cells was quantified using NIH Image J software, and values were normalized to vehicle control. Data represent triplicates from independent experiments. Error bars represent S.E.M. The p-value was calculated via two-tailed t-test.
Indicated ovarian clear cell carcinoma cell lines with known ARID1A mutational status were treated with the indicated concentration of HDAC6 inhibitor CAY10603 or vehicle control in a colony formation assay. After 12 days culture, integrated density of colony formed by the indicated cells was quantified using NIH Image J software, and values were normalized to vehicle control. Data represent triplicates from independent experiments. Error bars represent S.E.M.
Colony formation assays were performed as follows. Cell lines were infected with lentivirus pLKO.1-shRNAs or pLKO.1-control with puromycin selection marker. Infected cells were selected with 1 μg/mL of puromycin for 72 hours and the selected cells were seeded in 12-well or 24-well plates. Cell medium was changed every three days with appropriate drug doses for 14 days or until control wells became confluent. Colonies were washed twice with PBS and fixed with 10% methanol and 10% acetic acid in distilled water. Fixed colonies were stained with 0.005% crystal violet. Integrated density was measured using NIH ImageJ software.

[2] = tested on: p53 target genes (BAX, PUMA, NOXA, CDKN1A) in ARID1A-mutated TOV21G cells; assay: RNA-seq of p53 target genes; assay type: cell-based, human; conditions: 312 nM
Text: RNA was extracted and utilized for next generation sequencing (RNA-seq). Expression of p53 target genes known to regulate apoptosis such as BAX, PUMA and NOXA, and known to regulate cell cycle arrest such as CDKN1A were not altered by HDAC6 inhibition in RNA-seq analysis.

[3] = tested on: ARID1A-mutated TOV21G and OVISE cells; assay: apoptosis (Annexin V, cleaved caspase 3, cleaved PARP p85) in ARID1A-mutated cells; assay type: cell-based, human
Procedure: FIG. 10 illustrates the finding that HDAC6 inhibition induces apoptosis in ARID1A-inactivated cells. […] Cells were collected and stained for apoptotic markers Annexin V. Apoptotic cells were quantified. Error bars represent standard error of the mean. The p-value was calculated via a two-tailed t-test.
FIG. 11 illustrates the results of the experiments of FIG. 10, but examined for apoptotic markers cleaved caspase 3 and cleaved PARP p85 by immunoblot. GAPDH expression was used as a loading control.
Cells were collected, incubated with an Annexin V-FITC antibody and subjected to flow cytometry analysis. Annexin V-positive cells (apoptotic) were measured with FloJo software. Mean of three independent experiments with S.E.M.
FIG. 78 illustrates percent apoptosis based on Annexin V staining in ARID1A mutated TOV21G cells treated with 1.25 μM ACY1215, 20 μM pan-caspase inhibitor Q-VD-Oph, or a combination for 48 hrs.
FIG. 79 illustrates percent apoptosis based on Annexin V staining in ARID1A mutated TOV21G cells treated with 1.25 μM ACY1215 for 48 hrs with or without knockdown of caspase 3 or caspase 9.
For immunoblotting, protein was isolated as described in Bitler et al. Nat. Med. 2015, 21, 231-238. Briefly, protein was extracted with RIPA buffer (150 mM NaCl, 1% NP40, 0.5% sodium deoxycholate, 0.1% SDS, 50 mM Tris pH 8.0, and 1 mM PMSF). Protein was separated on a SDS-PAGE and transferred to PVDF membrane. For immunoblot of p53 post-translation modifications, cells were treated with a proteasome inhibitor MG132 (10 μM) to stabilize p53 protein.
Annexin V and mitochondria membrane potentials were measured as follows. Phosphatidylserine externalization was detected using an Annexin V staining kit (Life Technologies) following the manufacturer's instructions. To measure change in mitochondria membrane potential cells were treated with 200 nM of tetramethylrhodamine, ethyl ester (TMRE; Abcam) for 15 min at 37° C. Annexin V and TMRE-positive cells were detected using the LSR18 and analyzed with the FlowJo software module.

human HDAC6 = target: T1, human HDAC6 (Homo sapiens, UniProt Q9UBN7); assay: in vitro biochemical HDAC6 deacetylation assay (LC-MS)
T1 construct: made in house
T1 sequence (Q9UBN7 1-1215): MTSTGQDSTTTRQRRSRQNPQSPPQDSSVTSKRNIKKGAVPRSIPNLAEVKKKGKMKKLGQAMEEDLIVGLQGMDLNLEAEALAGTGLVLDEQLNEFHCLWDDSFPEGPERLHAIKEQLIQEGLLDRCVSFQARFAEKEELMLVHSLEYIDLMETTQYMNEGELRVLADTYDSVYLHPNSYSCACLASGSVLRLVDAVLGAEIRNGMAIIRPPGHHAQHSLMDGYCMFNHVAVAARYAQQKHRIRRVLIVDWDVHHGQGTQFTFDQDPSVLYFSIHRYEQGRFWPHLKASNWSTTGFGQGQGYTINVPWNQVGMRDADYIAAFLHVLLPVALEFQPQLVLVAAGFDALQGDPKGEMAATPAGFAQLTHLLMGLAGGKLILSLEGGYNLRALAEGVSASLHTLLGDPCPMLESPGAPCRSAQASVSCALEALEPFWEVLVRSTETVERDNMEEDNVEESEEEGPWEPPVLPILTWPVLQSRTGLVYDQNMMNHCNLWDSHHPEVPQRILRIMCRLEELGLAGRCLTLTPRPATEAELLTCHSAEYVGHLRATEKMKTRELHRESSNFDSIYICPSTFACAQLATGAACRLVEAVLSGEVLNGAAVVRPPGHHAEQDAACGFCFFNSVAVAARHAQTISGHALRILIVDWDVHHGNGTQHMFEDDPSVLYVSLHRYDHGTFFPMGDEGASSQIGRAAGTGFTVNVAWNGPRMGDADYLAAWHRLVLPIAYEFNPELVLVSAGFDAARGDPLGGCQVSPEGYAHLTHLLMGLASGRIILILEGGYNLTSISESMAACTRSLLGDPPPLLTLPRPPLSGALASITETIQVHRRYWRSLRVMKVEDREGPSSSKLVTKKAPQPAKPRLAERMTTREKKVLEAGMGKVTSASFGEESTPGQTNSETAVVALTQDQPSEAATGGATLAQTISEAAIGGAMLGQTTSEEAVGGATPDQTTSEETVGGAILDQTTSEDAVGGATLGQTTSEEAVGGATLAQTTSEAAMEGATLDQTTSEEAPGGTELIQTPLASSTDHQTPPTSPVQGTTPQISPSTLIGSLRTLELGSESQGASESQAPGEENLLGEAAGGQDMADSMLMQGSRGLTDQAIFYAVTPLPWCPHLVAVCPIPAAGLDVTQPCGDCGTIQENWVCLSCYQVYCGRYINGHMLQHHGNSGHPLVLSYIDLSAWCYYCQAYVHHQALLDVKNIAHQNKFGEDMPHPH
Procedure: Deacetylation reactions were detected by discontinuous liquid chromatography-mass spectrometry (LC-MS). […] All assays were performed in triplicates.
In vitro biochemical HDAC6 deacetylation assays were performed as follows. Activity assay with human HDAC6 was based on a discontinuous liquid chromatography-mass spectrometry (LC-MS) assay as reported in Hai and Christianson, 2016. Briefly, 0.05 μM of HDAC6 was incubated with 100 μM of substrate Ac-LHSGTAK(ac)SVT-COOH in HEPES buffer [20 mM HEPES (pH 7.5), 100 mM NaCl, 5 mM KCl, 1 mM MgCl2] for 20 min at room temperature, and the reaction was quenched by the addition of acetonitrile (equal volume to the reaction solution). […] The assay was run in the presence of 10 μM of HDAC6 specific inhibitor ACY-1215 as a negative control. All the assays were performed in triplicates. The peptide was custom synthesized by Genscript. The human HDAC6 construct was expressed and purified as described in Hai and Christianson, 2016.

CC(C)(C)OC(=O)Nc1ccc(-c2cc(C(=O)NCCCCCCC(=O)NO)no2)cc1 [CAY10603, tert-butyl 4-(3-((7-(hydroxyamino)-7-oxoheptyl)carbamoy)isoxazol-5-yl)phenylcarbamate]
sensitivity of ARID1A-mutated cells compared with ARID1A wild-type cells [1]: more sensitive
expression of p53 target genes (BAX, PUMA, NOXA, CDKN1A) [2]: not altered

c1cc(SSc2ccns2)sn1 [NU9056]
effect on apoptosis induced by ACY1215 ([3]; TIP60 inhibitor with ACY1215): suppressed apoptosis
p53K120Ac levels ([3]; TIP60 inhibitor with ACY1215): reduction of the p53K120Ac levels

CC(C)[C@H](NC(=O)c1ccc2ccccc2n1)C(=O)N[C@@H](CC(=O)O)C(=O)COc1c(F)cccc1F [Q-VD-Oph]
effect on apoptosis induced by ACY1215 ([3]; TOV21G, 20 μM Q-VD-Oph with 1.25 μM ACY1215, 48 hrs): significantly suppressed the apoptosis

Ac-LHSGTAK(Ac)SVT
specific activity of HDAC6 with this substrate (human HDAC6): 3.4±0.4 nmol product·nmol enzyme^−1·min^−1

Ala-Lys(Ac)-Ala-NH2
specific activity of HDAC6 with this substrate (human HDAC6): 10.5±0.5 nmol product·nmol enzyme^−1·min^−1
